Reference: ChEMBL document CHEMBL1154299, “Human liver microsomal metabolism of (+)-discodermolide” (J Nat Prod, 2009)

Tests used:
Format in all cases: ADME
[1] = test system: Liver microsomes; assay: Metabolic stability in human liver microsome at 10 uM in the presence of NADPH assessed as level of metabolites after 1 mins by LC-MS analysis
[2] = test system: Liver microsomes; assay: Metabolic stability in human liver microsome at 10 uM after 15 mins in the absence of NADPH by LC-MS analysis; settings: 0.25 h
[3] = test system: Liver microsomes; assay: Metabolic stability in heat inactivated human liver microsome at 10 uM after 15 mins in the presence of NADPH by LC-MS analysis; settings: 0.25 h
[4] = test system: Liver microsomes; assay: Metabolic stability in human liver microsome at 10 uM in the presence of NADPH assessed as level of metabolites after 5 mins by LC-MS analysis

In the case of `C=C/C=C\[C@H](C)[C@H](OC(N)=O)[C@@H](C)[C@H](O)[C@@H](C)C/C(C)=C\[C@H](C)[C@@H](O)[C@@H](C)/C=C\[C@@H](O)C[C@@H]1OC(=O)[C@H](C)[C@@H](O)[C@H]1C` [DISERMOLIDE], the Stability [1] is reported as “Unstable”, the Stability [2] is reported as “Stable” and the Stability [3] is reported as “Stable”. For the same compound, the Stability [4] was “Unstable”.
